Test [1] deals with HeLa human cervical tumour cells. The test is described as follows: Proliferation assay (crystal violet), HeLa. It is filed as cell-based. The settings on record: read-out: Inhibition of HeLa cell proliferation.
A further test concerns the target T1, CDK2/CycE (Homo sapiens, UniProt P24941).
T1 construct: GST; purchased ProQinase GmbH (Freiburg, Germany); host or cells: insect cells (Sf9)
Put plainly: CDK2/CycE kinase assay (TR-FRET). The class given is biochemical. The settings on record: Method 2, 10 μM ATP. The text has this: 2. CDK2/CycE Kinase Assay:
CDK2/CycE-inhibitory activity of compounds of the present invention was quantified employing the CDK2/CycE TR-FRET assay as described in the following paragraphs:
Recombinant fusion proteins of GST and human CDK2 and of GST and human CycE, expressed in insect cells (Sf9) and purified by Glutathion-Sepharose affinity chromatography, were purchased from ProQinase GmbH (Freiburg, Germany). As substrate for the kinase reaction biotinylated peptide biotin-Ttds-[…] (C-terminus in amid form) was used which can be purchased e.g. form the company JERINI Peptide Technologies (Berlin, Germany).
For the assay 50 nl of a 100fold concentrated solution of the test compound in DMSO was pipetted into a black low volume 384well microtiter plate (Greiner Bio-One, Frickenhausen, Germany), 2 μl of a solution of CDK2/CycE in aqueous assay buffer [50 mM Tris/HCl pH 8.0, 10 mM MgCl2, 1.0 mM dithiothreitol, 0.1 mM sodium ortho-vanadate, 0.01% (v/v) Nonidet-P40 (Sigma)] were added and the mixture was incubated for […] at 22° C. to allow pre-binding of the test compounds to the enzyme before the start of the kinase reaction. Then the kinase reaction was started by the addition of 3 μl of a solution of adenosine-tri-phosphate (ATP, 16.7 μM=>final conc. in the 5 it assay volume is 10 μM) and substrate (1.25 μM=>final conc. in the 5 it assay volume is 0.75 μM) in assay buffer and the resulting mixture was incubated for a reaction time of […] at 22° C. The concentration of CDK2/CycE was adjusted depending of the activity of the enzyme lot and was chosen appropriate to have the assay in the linear range, typical concentrations were in the range of 130 ng/ml. The reaction was stopped by the addition of 5 it of a solution of TR-FRET detection reagents (0.2 μM streptavidine-XL665 [Cisbio Bioassays, Codolet, France] and 1 nM anti-RB(pSer807/pSer811)-antibody from BD Pharmingen [#558389] and 1.2 nM LANCE EU-W1024 labeled anti-mouse IgG antibody [Perkin-Elmer, product no. AD0077]) in an aqueous EDTA-solution (100 mM EDTA, 0.2% (w/v) bovine serum albumin in 100 mM HEPES/NaOH pH 7.0).
(§1) The resulting mixture was incubated 1 h at 22° C. to allow the formation of complex between the phosphorylated biotinylated peptide and the detection reagents. Subsequently the amount of phosphorylated substrate was evaluated by measurement of the resonance energy transfer from the Eu-chelate to the streptavidine-XL. Therefore, the fluorescence emissions at 620 nm and 665 nm after excitation at 350 nm was measured in a TR-FRET reader, e.g. a Rubystar (BMG Labtechnologies, Offenburg, Germany) or a Viewlux (Perkin-Elmer). The ratio of the emissions at 665 nm and at 622 nm was taken as the measure for the amount of phosphorylated substrate.

The next test addresses T2, CDK9/CycT1 (Homo sapiens, UniProt P50750).
T2 construct: Recombinant full-length His-tagged human CDK9 and CycT1; His; purchased Invitrogen PV4131; host or cells: insect cells
Put plainly: CDK9/CycT1 kinase assay (TR-FRET). It is filed as biochemical. The settings on record: Method 1, 10 μM ATP.
Source text: 1. CDK9/CycT1 Kinase Assay:
CDK9/CycT1-inhibitory activity of compounds of the present invention was quantified employing the CDK9/CycT1 TR-FRET assay as described in the following paragraphs:
Recombinant full-length His-tagged human CDK9 and CycT1, expressed in insect cells and purified by Ni-NTA affinity chromatography, were purchased from Invitrogen (Cat. No PV4131). As substrate for the kinase reaction biotinylated peptide biotin-Ttds-[…] (C-terminus in amid form) was used which can be purchased e.g. form the company JERINI Peptide Technologies (Berlin, Germany). For the assay 50 nl of a 100fold concentrated solution of the test compound in DMSO was pipetted into a black low volume 384well microtiter plate (Greiner Bio-One, Frickenhausen, Germany), 2 μl of a solution of CDK9/CycT1 in aqueous assay buffer [50 mM Tris/HCl pH 8.0, 10 mM MgCl2, 1.0 mM dithiothreitol, 0.1 mM sodium ortho-vanadate, 0.01% (v/v) Nonidet-P40 (Sigma)] were added and the mixture was incubated for 15 min at 22° C. to allow pre-binding of the test compounds to the enzyme before the start of the kinase reaction. Then the kinase reaction was started by the addition of 3 μl of a solution of adenosine-tri-phosphate (ATP, 16.7 μM=>final conc. in the 5 μl assay volume is 10 μM) and substrate (1.67 μM=>final conc. in the 5 μl assay volume is 1 μM) in assay buffer and the resulting mixture was incubated for a reaction time of 25 min at 22° C. The concentration of CDK9/CycT1 was adjusted depending of the activity of the enzyme lot and was chosen appropriate to have the assay in the linear range, typical concentrations were in the range of 1 μg/ml. The reaction was stopped by the addition of 5 μl of a solution of TR-FRET detection reagents (0.2 μM streptavidine-XL665 [Cisbio Bioassays, Codolet, France] and 1 nM anti-RB(pSer807/pSer811)-antibody from BD Pharmingen [#558389] and 1.2 nM LANCE EU-W1024 labeled anti-mouse IgG antibody [Perkin-Elmer, product no. AD0077]) in an aqueous EDTA-solution (100 mM EDTA, 0.2% (w/v) bovine serum albumin in 100 mM HEPES/NaOH pH 7.0).
as §1, with “HTRF” for “TR-FRET”
(TR-FRET usually uses a lanthanide donor and a delayed reading to cut background.)

T2 sequence (P50750 whole entry): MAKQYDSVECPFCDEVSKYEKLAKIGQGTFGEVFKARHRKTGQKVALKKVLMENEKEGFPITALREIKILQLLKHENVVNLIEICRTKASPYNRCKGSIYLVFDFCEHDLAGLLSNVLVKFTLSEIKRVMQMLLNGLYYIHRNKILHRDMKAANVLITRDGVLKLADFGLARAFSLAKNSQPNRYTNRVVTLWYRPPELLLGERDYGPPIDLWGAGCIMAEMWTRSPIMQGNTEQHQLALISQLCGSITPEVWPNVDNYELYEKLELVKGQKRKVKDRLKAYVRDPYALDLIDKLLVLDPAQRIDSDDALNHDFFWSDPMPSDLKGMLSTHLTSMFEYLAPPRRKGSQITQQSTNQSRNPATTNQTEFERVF
T2 sequence (O60563 whole entry partner): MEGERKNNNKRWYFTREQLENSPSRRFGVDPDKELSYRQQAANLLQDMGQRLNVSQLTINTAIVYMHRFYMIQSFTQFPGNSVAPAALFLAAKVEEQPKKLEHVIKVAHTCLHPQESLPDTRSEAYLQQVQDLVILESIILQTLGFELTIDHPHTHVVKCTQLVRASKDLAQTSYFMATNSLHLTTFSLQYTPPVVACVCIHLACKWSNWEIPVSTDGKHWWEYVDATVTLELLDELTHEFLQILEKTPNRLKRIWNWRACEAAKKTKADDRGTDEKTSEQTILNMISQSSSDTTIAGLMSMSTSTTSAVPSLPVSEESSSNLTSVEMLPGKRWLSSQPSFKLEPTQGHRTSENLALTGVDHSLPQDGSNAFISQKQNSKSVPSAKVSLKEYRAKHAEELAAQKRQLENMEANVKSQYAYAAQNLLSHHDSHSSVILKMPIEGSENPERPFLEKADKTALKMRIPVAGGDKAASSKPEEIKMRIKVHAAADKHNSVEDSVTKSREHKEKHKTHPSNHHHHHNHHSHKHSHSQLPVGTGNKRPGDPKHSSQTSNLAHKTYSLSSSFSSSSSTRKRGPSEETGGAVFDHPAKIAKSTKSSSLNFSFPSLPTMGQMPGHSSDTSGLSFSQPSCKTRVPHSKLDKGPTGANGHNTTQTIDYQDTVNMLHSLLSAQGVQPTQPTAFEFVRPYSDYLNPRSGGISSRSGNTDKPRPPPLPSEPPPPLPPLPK

With `CS(=O)(=O)Cc1cccc(Nc2ncnc(-c3cccc4c3OCC4)n2)c1` [Example 13, 4-(2,3-Dihydro-1-benzofuran-7-yl)-N-{3-[(methylsulfonyl)methyl]phenyl}-1,3,5-triazin-2-amine], the IC50 worked out at 950 nM in test [1], 710 nM against CDK2/CycE and 15 nM at CDK9/CycT1.

Turning to `COc1cc(F)ccc1-c1ncnc(Nc2cccc(CS(=O)(=O)C3CCCC3)c2)n1` [Example 36, N-{3-[(Cyclopentylsulfonyl)methyl]phenyl}-4-(4-fluoro-2-methoxyphenyl)-1,3,5-triazin-2-amine], the results for the IC50 (in test [1]; at CDK2/CycE; against CDK9/CycT1) were 1000 nM, 880 nM and 17 nM, respectively.

As to `CC(Oc1cc(F)ccc1-c1ncnc(Nc2cccc(CS(C)(=O)=O)c2)n1)c1ccccc1` (racemic) [Example 68, rac-4-[4-Fluoro-2-(1-phenylethoxy)phenyl]-N-{3-[(methylsulfonyl)methyl]phenyl}-1,3,5-triazin-2-amine], the IC50 in test [1] was determined as 1400 nM; against CDK2/CycE, 1100 nM; against CDK9/CycT1 it was 16 nM.

As to `CC(C)S(=O)(=O)Cc1cccc(Nc2ncnc(-c3ccccc3OCc3cccc(Cl)c3)n2)c1` [Example 34, 4-{2-[(3-Chlorobenzyl)oxy]phenyl}-N-{3-[(propan-2-ylsulfonyl)methyl]phenyl}-1,3,5-triazin-2-amine], the IC50 came to 1200 nM in test [1], 800 nM at CDK2/CycE and 10 nM at CDK9/CycT1.

`CS(=O)(=O)Cc1cccc(Nc2ncnc(-c3ccc(F)cc3OCC3CCC3)n2)c1` [Example 56, 4-[2-(Cyclobutylmethoxy)-4-fluorophenyl]-N-{3-[(methylsulfonyl)methyl]phenyl}-1,3,5-triazin-2-amine]: the results for the IC50 (in test [1]; against CDK2/CycE; on CDK9/CycT1) were 1100 nM, 1400 nM and 27 nM, respectively.

Take `CS(=O)(=O)Cc1cccc(Nc2ncnc(-c3ccc(F)cc3OCc3ccc(Cl)cc3)n2)c1` [Example 76, 4-{2-[(4-Chlorobenzyl)oxy]-4-fluorophenyl}-N-{3-[(methylsulfonyl)methyl]phenyl}-1,3,5-triazin-2-amine]: the IC50 amounted to 1000 nM in test [1], 710 nM against CDK2/CycE and 6 nM at CDK9/CycT1.

Regarding `CS(=O)(=O)Cc1cccc(Nc2ncnc(-c3ccc(F)cc3OC3CC3)n2)c1` [Example 41, 4-[2-(Cyclopropyloxy)-4-fluorophenyl]-N-{3-[(methylsulfonyl)methyl]phenyl}-1,3,5-triazin-2-amine], the figures for the IC50 (in test [1]; at CDK2/CycE; against CDK9/CycT1) were 900 nM, 1000 nM and 29 nM, respectively.

Consider `CCCCCCOc1cc(F)ccc1-c1ncnc(Nc2cccc(CS(C)(=O)=O)c2)n1` [Example 46, 4-[4-Fluoro-2-(hexyloxy)phenyl]-N-{3-[(methylsulfonyl)methyl]phenyl}-1,3,5-triazin-2-amine], for which the IC50 in test [1] came out at 2800 nM; against CDK2/CycE it was 2700 nM; against CDK9/CycT1, 15 nM.

On to `COCCS(=O)(=O)Cc1cccc(Nc2ncnc(-c3ccc(F)cc3OC)n2)c1` [Example 23, 4-(4-Fluoro-2-methoxyphenyl)-N-(3-{[(2-methoxyethyl)sulfonyl]methyl}phenyl)-1,3,5-triazin-2-amine], for which the values for the IC50 (in test [1]; against CDK2/CycE; against CDK9/CycT1) were 930 nM, 1300 nM and 12 nM, respectively.

Take `CS(=O)(=O)Cc1cccc(Nc2ncnc(-c3ccc(F)cc3OCC(F)F)n2)c1` [Example 60, 4-[2-(2,2-Difluoroethoxy)-4-fluorophenyl]-N-{3-[(methylsulfonyl)methyl]phenyl}-1,3,5-triazin-2-amine]: the results for the IC50 (in test [1]; against CDK2/CycE; against CDK9/CycT1) were 1100 nM, 1200 nM and 22 nM, respectively.

As for `CS(=O)(=O)Cc1cccc(Nc2ncnc(-c3ccc(F)cc3OCc3cc(F)c(F)cc3F)n2)c1` [Example 75, 4-{4-Fluoro-2-[(2,4,5-trifluorobenzyl)oxy]phenyl}-N-{3-[(methylsulfonyl)-methyl]phenyl}-1,3,5-triazin-2-amine], the IC50 in test [1] came out at 1100 nM; on CDK9/CycT1, 6 nM.

With `CS(=O)(=O)Cc1cccc(Nc2ncnc(-c3ccc(F)cc3OCc3cc(F)cc(C(F)(F)F)c3)n2)c1` [Example 78, 4-(4-Fluoro-2-{[3-fluoro-5-(trifluoromethyl)benzyl]oxy}phenyl)-N-{3-[(methylsulfonyl)-methyl]-phenyl}-1,3,5-triazin-2-amine], the IC50 worked out at 950 nM in test [1] and 4 nM against CDK9/CycT1.

Turning to `CS(=O)(=O)Cc1cccc(Nc2ncnc(-c3ccc(F)cc3OCc3cc(F)ccc3F)n2)c1` [Example 81, 4-{2-[(2,5-Difluorobenzyl)-oxy]-4-fluorophenyl}-N-{3-[(methylsulfonyl)methyl]phenyl}-1,3,5-triazin-2-amine], the IC50 turned out to be 820 nM in test [1] and 5 nM on CDK9/CycT1.

Take `CS(=O)(=O)Cc1cccc(Nc2ncnc(-c3ccccc3OCC(F)(F)F)n2)c1` [Example 16, N-{3-[(Methylsulfonyl)methyl]phenyl}-4-[2-(2,2,2-trifluoroethoxy)phenyl]-1,3,5-triazin-2-amine]: the IC50 came out at 8300 nM on CDK2/CycE and 74 nM on CDK9/CycT1.

With `CS(=O)(=O)Cc1cccc(Nc2ncnc(-c3ccccc3OCc3ccccc3Cl)n2)c1` [Example 27, 4-{2-[(2-Chlorobenzyl)oxy]phenyl}-N-{3-[(methylsulfonyl)methyl]phenyl}-1,3,5-triazin-2-amine], the IC50 stood at 8800 nM against CDK2/CycE and 87 nM against CDK9/CycT1.

For the molecule `CS(=O)(=O)Cc1cccc(Nc2ncnc(-c3ccc(F)cc3OCCC3CCCCC3)n2)c1` [Example 63, 4-[2-(2-Cyclohexylethoxy)-4-fluorophenyl]-N-{3-[(methylsulfonyl)methyl]phenyl}-1,3,5-triazin-2-amine], the IC50 against CDK2/CycE was determined as 7400 nM; at CDK9/CycT1, 170 nM.

The values are drawn from patent US8916557B2, “Substituted 4-Aryl-N-phenyl-1,3,5-triazin-2-amines” (Bayer Intellectual Property GmbH, priority 2011, dated 2014).
